# Laboratory results reported in patent publication US20240150345A1, “GCN2 MODULATING COMPOUNDS AND USES THEREOF” (HiberCell, Inc., priority 2021, published 2024).
# Molecular target: T1, GCN2 (Homo sapiens, UniProt Q9P2K8)
# T1 construct: purchased Carma Biosciences (so in the source)
# Assay: TR-FRET biochemical assay for inhibition of GCN2 activity
# Conditions: 2 nM GCN2, 100 nM GFP-eIF2α, 150 μM ATP, 1.5 hours at 25° C.
# Summary of the method: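 Compounds (11-point, 3-fold series) were incubated with GCN2 (2 nM final), GFP-eIF2α (100 nM final) and 150 μM ATP with 2 mM DTT for 1.5 h at 25 °C. A 1 nM Tb-anti-P-eIF2α solution was then added for 2 h at 25 °C. TR-FRET was read (ex 340 nm, em 495/520 nm) and fitted with a 4-parameter sigmoidal curve.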
# T1 sequence (Q9P2K8 whole entry): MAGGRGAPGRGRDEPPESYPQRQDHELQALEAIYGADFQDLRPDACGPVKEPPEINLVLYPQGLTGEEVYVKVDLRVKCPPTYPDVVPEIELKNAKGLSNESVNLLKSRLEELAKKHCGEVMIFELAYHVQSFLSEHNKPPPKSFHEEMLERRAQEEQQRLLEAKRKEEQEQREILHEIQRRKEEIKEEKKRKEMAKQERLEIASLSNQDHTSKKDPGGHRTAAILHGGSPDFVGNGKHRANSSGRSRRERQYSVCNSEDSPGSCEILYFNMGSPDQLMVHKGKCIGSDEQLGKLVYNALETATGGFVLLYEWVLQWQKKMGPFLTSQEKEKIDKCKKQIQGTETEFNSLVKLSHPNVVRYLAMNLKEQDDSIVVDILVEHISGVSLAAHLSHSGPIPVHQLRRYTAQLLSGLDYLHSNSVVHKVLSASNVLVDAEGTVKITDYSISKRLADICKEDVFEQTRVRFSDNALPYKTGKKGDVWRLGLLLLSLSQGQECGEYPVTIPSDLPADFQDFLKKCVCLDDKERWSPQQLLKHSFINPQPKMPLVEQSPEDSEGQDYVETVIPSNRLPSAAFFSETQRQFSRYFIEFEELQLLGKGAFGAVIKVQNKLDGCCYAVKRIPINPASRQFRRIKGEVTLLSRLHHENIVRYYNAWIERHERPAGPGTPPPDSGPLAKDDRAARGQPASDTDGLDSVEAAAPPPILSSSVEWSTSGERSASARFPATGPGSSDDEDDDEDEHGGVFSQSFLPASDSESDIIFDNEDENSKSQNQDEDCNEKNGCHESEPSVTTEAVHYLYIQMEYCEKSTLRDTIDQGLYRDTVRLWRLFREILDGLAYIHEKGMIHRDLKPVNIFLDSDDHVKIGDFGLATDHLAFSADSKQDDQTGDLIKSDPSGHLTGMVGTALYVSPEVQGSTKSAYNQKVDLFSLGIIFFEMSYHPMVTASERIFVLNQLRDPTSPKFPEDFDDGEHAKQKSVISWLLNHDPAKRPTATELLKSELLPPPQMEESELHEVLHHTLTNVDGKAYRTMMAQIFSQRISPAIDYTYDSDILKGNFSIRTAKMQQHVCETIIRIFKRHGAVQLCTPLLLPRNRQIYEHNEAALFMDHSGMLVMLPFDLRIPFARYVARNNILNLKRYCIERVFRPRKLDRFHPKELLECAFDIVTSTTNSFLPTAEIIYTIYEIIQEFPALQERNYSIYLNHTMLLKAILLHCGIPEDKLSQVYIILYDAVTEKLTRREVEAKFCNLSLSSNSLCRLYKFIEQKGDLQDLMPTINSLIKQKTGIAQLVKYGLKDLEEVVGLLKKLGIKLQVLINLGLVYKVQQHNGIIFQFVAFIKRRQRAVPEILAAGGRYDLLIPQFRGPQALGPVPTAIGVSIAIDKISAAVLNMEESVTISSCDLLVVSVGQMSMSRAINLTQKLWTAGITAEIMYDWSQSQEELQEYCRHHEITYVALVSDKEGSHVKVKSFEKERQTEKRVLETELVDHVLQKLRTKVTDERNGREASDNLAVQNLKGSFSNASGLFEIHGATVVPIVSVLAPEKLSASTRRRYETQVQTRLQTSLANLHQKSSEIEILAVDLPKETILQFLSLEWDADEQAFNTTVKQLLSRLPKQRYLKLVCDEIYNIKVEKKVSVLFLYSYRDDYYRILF
row,SMILES,IC50 [µM]
1,"COc1ncc(F)cc1S(=O)(=O)Nc1ccc(F)c(COc2cnc3[nH]nc(C)c3c2Cc2ccccc2)c1F [Compound 89, N-[3-[([4-benzyl-3-methyl-1H-pyrazolo[3,4-b]pyridin-5-yl]oxy)methyl]-2,4-difluorophenyl]-5-fluoro-2-methoxypyridine-3-sulfonamide]",> 1
2,"COc1ncc(F)cc1S(=O)(=O)Nc1ccc(F)c(COc2cnc3cnn(C)c3c2)c1F [Compound 43, N-[2,4-difluoro-3-[([1-methylpyrazolo[4,3-b]pyridin-6-yl]oxy)methyl]phenyl]-5-fluoro-2-methoxypyridine-3-sulfonamide]",< 0.05
3,"COc1ncc(F)cc1S(=O)(=O)Nc1ccc(Cl)c(COc2cnc3[nH]nc(C)c3c2)c1F [Compound 78, N-(4-chloro-2-fluoro-3-(((3-methyl-1H-pyrazolo[3,4-b]pyridin-5-yl)oxy)methyl)phenyl)-5-fluoro-2-methoxypyridine-3-sulfonamide]",< 0.05
4,"COc1ncc(C#N)cc1S(=O)(=O)Nc1ccc(F)c(COc2cnc3[nH]ncc3c2)c1F [Compound 26, 5-cyano-N-[2,4-difluoro-3-([1H-pyrazolo[3,4-b]pyridin-5-yloxy]methyl)phenyl]-2-methoxypyridine-3-sulfonamide]",< 0.05
5,"COc1ncc(Cl)cc1S(=O)(=O)Nc1ccc(F)c(CCc2cnc3cn(C)nc3c2)c1F [Compound 17, 5-chloro-N-[2,4-difluoro-3-(2-[2-methylpyrazolo[4,3-b]pyridin-6-yl]ethyl)phenyl]-2-methoxypyridine-3-sulfonamide]",< 0.05
6,"COc1ncc(F)cc1S(=O)(=O)Nc1ccc(F)c(COc2cnc3[nH]nc(C4CC4)c3c2)c1F [Compound 70, N-(3-(((3-cyclopropyl-1H-pyrazolo[3,4-b]pyridin-5-yl)oxy)methyl)-2,4-difluorophenyl)-5-fluoro-2-methoxypyridine-3-sulfonamide]",< 0.05
7,"C#Cc1n[nH]c2ncc(OCc3c(F)ccc(NS(=O)(=O)c4cc(F)cnc4OC)c3F)cc12 [Compound 69, N-[3-[([3-ethynyl-1H-pyrazolo[3,4-b]pyridin-5-yl]oxy)methyl]-2,4-difluorophenyl]-5-fluoro-2-methoxypyridine-3-sulfonamide]",< 0.05
8,"COc1ncc(F)cc1S(=O)(=O)Nc1ccc(F)c(COc2cnc3[nH]nc(C)c3c2-c2ccccn2)c1F [Compound 90, N-[2,4-difluoro-3-([[3-methyl-4-(pyridin-2-yl)-1H-pyrazolo[3,4-b]pyridin-5-yl]oxy]methyl)phenyl]-5-fluoro-2-methoxypyridine-3-sulfonamide]",0.05 to 0.5
9,"COc1ncc(Cl)cc1S(=O)(=O)Nc1ccc(F)c(CCc2ccc3[nH]ncc3n2)c1F [Compound 11, 5-chloro-N-[2,4-difluoro-3-(2-[1H-pyrazolo[4,3-b]pyridin-5-yl]ethyl)phenyl]-2-methoxypyridine-3-sulfonamide]",> 1
10,"COc1ncc(Cl)cc1S(=O)(=O)Nc1ccc(F)c(CNc2cnc3[nH]ncc3c2)c1F [Compound 3, 5-chloro-N-[2,4-difluoro-3-([1H-pyrazolo[3,4-b]pyridin-5-ylamino]methyl)phenyl]-2-methoxypyridine-3-sulfonamide]",0.05 to 0.5
11,"COc1ncc(F)cc1S(=O)(=O)Nc1ccc(F)c(COc2cnc3[nH]nc(C)c3c2)c1C#N [Compound 62, N-[2-cyano-4-fluoro-3-[([3-methyl-1H-pyrazolo[3,4-b]pyridin-5-yl]oxy)methyl]phenyl]-5-fluoro-2-methoxypyridine-3-sulfonamide]",0.05 to 0.5
12,"Cc1ncc(F)cc1S(=O)(=O)Nc1ccc(F)c(NCc2cnc3[nH]nc(C)c3c2)c1F [Compound 59, N-[2,4-difluoro-3-[([3-methyl-1H-pyrazolo[3,4-b]pyridin-5-yl]methyl)amino]phenyl]-5-fluoro-2-methylpyridine-3-sulfonamide]",0.05 to 0.5
13,"COc1ncc(F)cc1S(=O)(=O)Nc1ccc(F)c(COc2cnc3[nH]nc(C(C)C)c3c2)c1F [Compound 52, N-[2,4-difluoro-3-[([3-isopropyl-1H-pyrazolo[3,4-b]pyridin-5-yl]oxy)methyl]phenyl]-5-fluoro-2-methoxypyridine-3-sulfonamide]",< 0.05
14,"COc1ncc(Cl)cc1S(=O)(=O)Nc1ccc(F)c(COc2cnc3[nH]nc(C)c3c2)c1F [Compound 14, 5-chloro-N-[2,4-difluoro-3-[([3-methyl-1H-pyrazolo[3,4-b]pyridin-5-yl]oxy)methyl]phenyl]-2-methoxypyridine-3-sulfonamide]",< 0.05
15,"COc1ncc(F)cc1S(=O)(=O)Nc1ccc(F)c(COc2cnc3[nH]nc(C)c3c2-c2cccnc2)c1F [Compound 91, N-[2,4-difluoro-3-([[3-methyl-4-(pyridin-3-yl)-1H-pyrazolo[3,4-b]pyridin-5-yl]oxy]methyl)phenyl]-5-fluoro-2-methoxypyridine-3-sulfonamide]",0.05 to 0.5
16,"COc1ncc(F)cc1S(=O)(=O)Nc1ccc(F)c(COc2cnc3[nH]nc(C(F)(F)F)c3c2)c1F [Compound 44, N-[2,4-difluoro-3-([[3-(trifluoromethyl)-1H-pyrazolo[3,4-b]pyridin-5-yl]oxy]methyl)phenyl]-5-fluoro-2-methoxypyridine-3-sulfonamide]",< 0.05
17,"COc1ncc(C#N)cc1S(=O)(=O)Nc1ccc(F)c(CCc2cnc3[nH]ncc3c2)c1F [Compound 10, 5-cyano-N-[2,4-difluoro-3-(2-[1H-pyrazolo[3,4-b]pyridin-5-yl]ethyl)phenyl]-2-methoxypyridine-3-sulfonamide]",< 0.05
